Residues, ends and D or L forms follow the SMILES beside them. *: point of attachment. Succinyl(4-O-cholesteryl) = CC(C)CCC[C@@H](C)[C@H]1CC[C@H]2[C@@H]3CC=C4C[C@@H](OC(=O)CCC(=O)*)CC[C@]4(C)[C@H]3CC[C@]12C
Tested on: SARS-CoV-2 D614G mutant strain
Settings: 48 h

| SMILES | IC50 |
| --- | --- |
| CC[C@H](C)[C@H](NC(=O)[C@H](CCCCN)NC(=O)[C@H](CCCCN)NC(=O)[C@H](CCC(=O)O)NC(=O)[C@H](CC(C)C)NC(=O)[C@H](CCC(=O)O)NC(=O)[C@H](CCC(=O)O)NC(=O)[C@H](CC(C)C)NC(=O)[C@H](CCC(=O)O)NC(=O)[C@H](CCCCN)NC(=O)[C@H](CCC(=O)O)NC(=O)[C@H](Cc1ccc(O)cc1)NC(=O)[C@H](CCC(=O)O)NC(=O)[C@H](CCC(=O)O)NC(=O)[C@H](Cc1ccc(O)cc1)NC(=O)[C@H](CCC(=O)O)NC(C)=O)C(=O)N[C@@H](CCC(=O)O)C(=O)N[C@@H](CCC(=O)O)C(=O)N[C@@H](CC(C)C)C(=O)N[C@@H](CC(C)C)C(=O)N[C@@H](CCCCN)C(=O)N[C@@H](CCCCN)C(=O)N[C@@H](C)C(=O)N[C@@H](CCC(=O)O)C(=O)N[C@@H](CCC(=O)O)C(=O)N[C@@H](CCC(N)=O)C(=O)N[C@@H](CCC(N)=O)C(=O)N[C@@H](CCCCN)C(=O)N[C@@H](CCCCN)C(=O)N[C@@H](CC(N)=O)C(=O)N[C@@H](CCC(=O)O)C(=O)N[C@@H](C)C(=O)N[C@@H](C)C(=O)N[C@@H](C)C(=O)N[C@@H](CCCCN)C(=O)N[C@@H](CCCCNC(=O)CCC(=O)O[C@H]1CC[C@@]2(C)C(=CC[C@H]3[C@@H]4CC[C@H]([C@H](C)CCCC(C)C)[C@@]4(C)CC[C@@H]32)C1)C(N)=O [LP-127] (Ac-EYEEYEKELEELEKKIEELLKKAEEQQKKNEAAAKK(Succinyl(4-O-cholesteryl))-NH2) | 27.4 nM |
| CC[C@H](C)[C@H](NC(=O)[C@H](CCCCN)NC(=O)[C@H](CCCCN)NC(=O)[C@H](CCC(=O)O)NC(=O)[C@H](CC(C)C)NC(=O)[C@H](CCC(=O)O)NC(=O)[C@H](CCC(=O)O)NC(=O)[C@H](CC(C)C)NC(=O)[C@H](CCC(=O)O)NC(=O)[C@H](CCCCN)NC(=O)[C@H](CCC(=O)O)NC(=O)[C@H](Cc1ccc(O)cc1)NC(=O)[C@H](CCC(=O)O)NC(C)=O)C(=O)N[C@@H](CCC(=O)O)C(=O)N[C@@H](CCC(=O)O)C(=O)N[C@@H](CC(C)C)C(=O)N[C@@H](CC(C)C)C(=O)N[C@@H](CCCCN)C(=O)N[C@@H](CCCCN)C(=O)N[C@@H](C)C(=O)N[C@@H](CCC(=O)O)C(=O)N[C@@H](CCC(=O)O)C(=O)N[C@@H](CCC(N)=O)C(=O)N[C@@H](CCC(N)=O)C(=O)N[C@@H](CCCCN)C(=O)N[C@@H](CCCCN)C(=O)N[C@@H](CC(N)=O)C(=O)N[C@@H](CCC(=O)O)C(=O)N[C@@H](C)C(=O)N[C@@H](C)C(=O)N[C@@H](C)C(=O)N[C@@H](CCCCN)C(=O)N[C@@H](CCCCNC(=O)CCC(=O)O[C@H]1CC[C@@]2(C)C(=CC[C@H]3[C@@H]4CC[C@H]([C@H](C)CCCC(C)C)[C@@]4(C)CC[C@@H]32)C1)C(N)=O [LP-128] (Ac-EYEKELEELEKKIEELLKKAEEQQKKNEAAAKK(Succinyl(4-O-cholesteryl))-NH2) | 25.1 nM |
